{"source": "the NIST ThermoML archive (doi:10.1021/je050327l)", "conditions": "Liquid, Ebulliometric method (Recirculating still)", "note": "± gives the expanded uncertainty stated by the source.", "data": [{"smiles": "COCC(C)O", "note": "(stereo unspecified) [1-methoxy-2-propanol]", "values": [{"measurement": "vapor or sublimation pressure", "setting": "313.15 K", "result": "3.614 ± 0.093", "unit": "kPa"}, {"measurement": "vapor or sublimation pressure", "setting": "353.15 K", "result": "24.18 ± 0.15", "unit": "kPa"}]}, {"smiles": "CC(C=O)c1ccccc1", "note": "(stereo unspecified) [2-phenylpropanal]", "values": [{"measurement": "vapor or sublimation pressure", "setting": "373.1 K", "result": "3.056 ± 0.084", "unit": "kPa"}, {"measurement": "vapor or sublimation pressure", "setting": "423.15 K", "result": "20.97 ± 0.14", "unit": "kPa"}]}, {"smiles": "CCCC(=O)O", "note": "[butanoic acid]", "values": [{"measurement": "vapor or sublimation pressure", "setting": "373.1 K", "result": "9.38 ± 0.13", "unit": "kPa"}, {"measurement": "vapor or sublimation pressure", "setting": "413.15 K", "result": "45.85 ± 0.23", "unit": "kPa"}]}, {"smiles": "COC", "note": "[dimethyl ether]", "values": [{"measurement": "vapor or sublimation pressure", "setting": "253.05 K", "result": "125 ± 1.1", "unit": "kPa"}, {"measurement": "vapor or sublimation pressure", "setting": "293.15 K", "result": "508.1 ± 2.2", "unit": "kPa"}]}, {"smiles": "CC[N+](=O)[O-]", "note": "[nitroethane]", "values": [{"measurement": "vapor or sublimation pressure", "setting": "313.15 K", "result": "6.097 ± 0.11", "unit": "kPa"}, {"measurement": "vapor or sublimation pressure", "setting": "353.15 K", "result": "33.11 ± 0.18", "unit": "kPa"}]}, {"smiles": "Oc1ccccc1", "note": "[phenol]", "values": [{"measurement": "vapor or sublimation pressure", "setting": "373.1 K", "result": "5.529 ± 0.11", "unit": "kPa"}, {"measurement": "vapor or sublimation pressure", "setting": "423.15 K", "result": "39.18 ± 0.2", "unit": "kPa"}]}, {"smiles": "CCC(=O)O", "note": "[propanoic acid]", "values": [{"measurement": "vapor or sublimation pressure", "setting": "373.1 K", "result": "23.38 ± 0.23", "unit": "kPa"}, {"measurement": "vapor or sublimation pressure", "setting": "413.15 K", "result": "96.29 ± 0.45", "unit": "kPa"}]}, {"smiles": "C=CC", "note": "[propene]", "values": [{"measurement": "vapor or sublimation pressure", "setting": "253.05 K", "result": "307.2 ± 2.2", "unit": "kPa"}, {"measurement": "vapor or sublimation pressure", "setting": "293.15 K", "result": "1015.9 ± 4.4", "unit": "kPa"}]}]}
